Source: ChEMBL document CHEMBL1201862, “PubChem BioAssay data set” (2004)
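Following 48 hours of exposure in 96-well plates, responses at five concentrations were used to interpolate endpoints linearly. GI50: concentration for 50% inhibition of growth.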 Calls of active or inactive are those of the source. Rule as the data show it: active = GI50 up to about 1.1 µM and inactive = higher.

Assays:
Assay in all cases: NCI-60 cell line screen, 48 h
[1] = test system: SF-268
[2] = test system: RXF 631
[3] = test system: ACHN
[4] = test system: A549
[5] = test system: HOP-18
[6] = test system: LOX IMVI
[7] = test system: DLD-1
[8] = test system: UACC-257
[9] = test system: CCRF-CEM
[10] = test system: M19-MEL
[11] = test system: A498
[12] = test system: SK-MEL-28
[13] = test system: M14
[14] = test system: HCT-116
[15] = test system: SK-OV-3
[16] = test system: SW-620
[17] = test system: KM-20L2
[18] = test system: RPMI-8226
[19] = test system: IGROV-1
[20] = test system: UO-31
[21] = test system: UACC-62
[22] = test system: SF-295
[23] = test system: Malme-3M
[24] = test system: OVCAR-3
[25] = test system: NCI-H460
[26] = test system: NCI-H23
[27] = test system: U-251
[28] = test system: XF498
[29] = test system: K562
[30] = test system: SNB-19
[31] = test system: HCC 2998
[32] = test system: SR
[33] = test system: LXFL 529
[34] = test system: SN12C
[35] = test system: SF-539
[36] = test system: SNB-75
[37] = test system: HOP-62
[38] = test system: NCI-H226
[39] = test system: MOLT-4
[40] = test system: OVCAR-4
[41] = test system: OVCAR-5
[42] = test system: OVCAR-8
[43] = test system: SNB-78
[44] = test system: HL-60
[45] = test system: TK-10
[46] = test system: RXF 393
[47] = test system: 786-0
[48] = test system: HT-29
[49] = test system: EKVX
[50] = test system: KM12
[51] = test system: SK-MEL-5
[52] = test system: CAKI-1
[53] = test system: DMS-114
[54] = test system: HCT-15
[55] = test system: COLO 205
[56] = test system: SK-MEL-2
[57] = test system: NCI-H522
[58] = test system: DMS-273
[59] = test system: HOP-92

Structure (SMILES): O=C1N[C@@H]2CCCC[C@@H]2C12CCCCC2
- GI50 [1]: > 100 µM (inactive)
- GI50 [2]: > 100 µM (inactive)
- GI50 [3]: > 100 µM (inactive)
- GI50 [4]: > 100 µM (inactive)
- GI50 [5]: > 100 µM (inactive)
- GI50 [6]: > 100 µM (inactive)
- GI50 [7]: > 100 µM (inactive)
- GI50 [8]: > 100 µM (inactive)
- GI50 [9]: > 100 µM (inactive)
- GI50 [10]: > 100 µM (inactive)
- GI50 [11]: > 100 µM (inactive)
- GI50 [12]: > 100 µM (inactive)
- GI50 [13]: > 100 µM (inactive)
- GI50 [14]: > 100 µM (inactive)
- GI50 [15]: > 100 µM (inactive)
- GI50 [16]: > 100 µM (inactive)
- GI50 [17]: > 100 µM (inactive)
- GI50 [18]: > 100 µM (inactive)
- GI50 [19]: > 100 µM (inactive)
- GI50 [20]: > 100 µM (inactive)
- GI50 [21]: > 100 µM (inactive)
- GI50 [22]: > 100 µM (inactive)
- GI50 [23]: > 100 µM (inactive)
- GI50 [24]: > 100 µM (inactive)
- GI50 [25]: > 100 µM (inactive)
- GI50 [26]: > 100 µM (inactive)
- GI50 [27]: > 100 µM (inactive)
- GI50 [28]: > 100 µM (inactive)
- GI50 [29]: > 100 µM (inactive)
- GI50 [30]: > 100 µM (inactive)
- GI50 [31]: > 100 µM (inactive)
- GI50 [32]: > 100 µM (inactive)
- GI50 [33]: > 100 µM (inactive)
- GI50 [34]: > 100 µM (inactive)
- GI50 [35]: > 100 µM (inactive)
- GI50 [36]: > 100 µM (inactive)
- GI50 [37]: > 100 µM (inactive)
- GI50 [38]: > 100 µM (inactive)
- GI50 [39]: > 100 µM (inactive)
- GI50 [40]: > 100 µM (inactive)
- GI50 [41]: > 100 µM (inactive)
- GI50 [42]: > 100 µM (inactive)
- GI50 [43]: > 100 µM (inactive)
- GI50 [44]: > 100 µM (inactive)
- GI50 [45]: > 100 µM (inactive)
- GI50 [46]: > 100 µM (inactive)
- GI50 [47]: > 100 µM (inactive)
- GI50 [48]: > 100 µM (inactive)
- GI50 [49]: > 100 µM (inactive)
- GI50 [50]: > 100 µM (inactive)

Structure (SMILES): CCCCC(C(=O)C(=O)NC1C2CC3CC(C2)CC1C3)C(=O)C(C)C (stereo not drawn)
- GI50 [1]: > 100 µM (inactive)
- GI50 [2]: > 100 µM (inactive)
- GI50 [3]: > 100 µM (inactive)
- GI50 [4]: > 100 µM (inactive)
- GI50 [5]: > 100 µM (inactive)
- GI50 [51]: > 100 µM (inactive)
- GI50 [52]: > 100 µM (inactive)
- GI50 [6]: > 100 µM (inactive)
- GI50 [8]: > 100 µM (inactive)
- GI50 [9]: > 100 µM (inactive)
- GI50 [53]: > 100 µM (inactive)
- GI50 [54]: > 100 µM
- GI50 [10]: > 100 µM (inactive)
- GI50 [55]: > 100 µM (inactive)
- GI50 [11]: > 100 µM (inactive)
- GI50 [12]: > 100 µM (inactive)
- GI50 [13]: > 100 µM (inactive)
- GI50 [14]: > 100 µM (inactive)
- GI50 [15]: > 100 µM (inactive)
- GI50 [16]: > 100 µM (inactive)
- GI50 [17]: > 100 µM (inactive)
- GI50 [18]: > 100 µM (inactive)
- GI50 [56]: > 100 µM (inactive)
- GI50 [19]: > 100 µM (inactive)
- GI50 [20]: > 100 µM (inactive)
- GI50 [21]: > 100 µM (inactive)
- GI50 [22]: > 100 µM (inactive)
- GI50 [23]: > 100 µM (inactive)
- GI50 [24]: > 100 µM (inactive)
- GI50 [25]: > 100 µM (inactive)
- GI50 [26]: > 100 µM (inactive)
- GI50 [27]: > 100 µM (inactive)
- GI50 [28]: > 100 µM (inactive)
- GI50 [29]: > 100 µM (inactive)
- GI50 [30]: > 100 µM (inactive)
- GI50 [31]: > 100 µM (inactive)
- GI50 [32]: > 100 µM (inactive)
- GI50 [33]: > 100 µM (inactive)
- GI50 [34]: > 100 µM (inactive)
- GI50 [35]: > 100 µM (inactive)
- GI50 [36]: > 100 µM (inactive)
- GI50 [37]: > 100 µM (inactive)
- GI50 [57]: > 100 µM (inactive)
- GI50 [38]: > 100 µM (inactive)
- GI50 [39]: > 100 µM (inactive)
- GI50 [40]: > 100 µM (inactive)
- GI50 [58]: > 100 µM (inactive)
- GI50 [41]: > 100 µM (inactive)
- GI50 [42]: > 100 µM (inactive)
- GI50 [43]: > 100 µM (inactive)
- GI50 [44]: > 100 µM (inactive)
- GI50 [45]: > 100 µM (inactive)
- GI50 [59]: > 100 µM (inactive)
- GI50 [46]: > 100 µM (inactive)
- GI50 [47]: > 100 µM (inactive)
- GI50 [48]: > 100 µM (inactive)
- GI50 [49]: > 100 µM (inactive)
- GI50 [50]: > 100 µM (inactive)
